Measurements: patent publication US20240287138A1, “CYCLIC PEPTIDES FOR INHIBITING TNF RECEPTOR 1 ACTIVITY” (Merck Sharp & Dohme LLC, priority 2023, published 2024)
Numbered stars: 1 amine (or outer) side, 2 acyl side, 3 side chain; on linkers, the order of the positions; unused ones are H or OH. Bridge positions count the residues as written; N and C are the ends. Square brackets hold non-standard residues; d marks the D form. Peptide text beside a SMILES is read from it. Trp(βS-Me,7-OMe) = COc1cccc2c([C@H](C)[C@H](N)C(=O)O)c[nH]c12; Trp(7-Cl) = N[C@@H](Cc1c[nH]c2c(Cl)cccc12)C(=O)O; Phe(4-CONH2) = NC(=O)c1ccc(C[C@H](N)C(=O)O)cc1; Phe(4-COOH) = N[C@@H](Cc1ccc(C(=O)O)cc1)C(=O)O; Trp(7-F) = N[C@@H](Cc1c[nH]c2c(F)cccc12)C(=O)O; Trp(7-aza) = N[C@@H](Cc1c[nH]c2ncccc12)C(=O)O; Pip(5R-OH) = O=C(O)[C@@H]1CC[C@@H](O)CN1; X13 = O=C([C@H]1CC[C@@H](N[*:1])C1)[*:2]; X1 = O=C([C@@H]1CC[C@H](N[*:1])C1)[*:2]; dPro(4,4-F2) = O=C(O)[C@H]1CC(F)(F)CN1; d(cisHyp) = O=C(O)[C@H]1C[C@@H](O)CN1; Pip(4-aza) = O=C(O)[C@@H]1CNCCN1; hPhe = N[C@@H](CCc1ccccc1)C(=O)O; 4Pal = N[C@@H](Cc1ccncc1)C(=O)O; NMeE = CN[C@@H](CCC(=O)O)C(=O)O; αMeS = C[C@](N)(CO)C(=O)O; NMeA = CN[C@@H](C)C(=O)O; Nle = CCCC[C@H](N)C(=O)O; Sar = CNCC(=O)O

Experiments:
[1] = target: T1, human TNFR1 extracellular domain (ECD) protein (Homo sapiens, UniProt P19438); experiment: SPR binding affinity to captured human TNFR1 ECD
T1 construct: HRV 3C protease cleavage site (C); 6His (C, cleaved yes); made in house; host or cells: Sf21 insect cells (baculovirus), secreted
T1 sequence (P19438 30-211): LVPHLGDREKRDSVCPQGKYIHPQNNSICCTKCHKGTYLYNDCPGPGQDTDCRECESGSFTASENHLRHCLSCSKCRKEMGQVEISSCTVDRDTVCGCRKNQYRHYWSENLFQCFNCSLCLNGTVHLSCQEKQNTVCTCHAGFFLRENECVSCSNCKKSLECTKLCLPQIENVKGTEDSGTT
Summary of the method: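 Biotinylated avi-tagged human TNFR1 or TNFR2 ECD, expressed in Sf21 insect cells, captured on streptavidin SPR chip; peptide analytes run in 10 mM HEPES pH 7.4, 150 mM NaCl, 3 mM EDTA, 0.05% P20, 2% DMSO. kon and koff measured, affinity KA calculated.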

[2] = target: T2, human soluble TNFR1 (sTNFR1) (Homo sapiens, UniProt P19438); experiment: Human sTNFR1-peptide displacement assay (LanthaScreen Eu TR-FRET binding assay)
T2 construct: made in house; host or cells: Sf21 (baculovirus)
T2 sequence (P19438 with tags, fused parts or gaps): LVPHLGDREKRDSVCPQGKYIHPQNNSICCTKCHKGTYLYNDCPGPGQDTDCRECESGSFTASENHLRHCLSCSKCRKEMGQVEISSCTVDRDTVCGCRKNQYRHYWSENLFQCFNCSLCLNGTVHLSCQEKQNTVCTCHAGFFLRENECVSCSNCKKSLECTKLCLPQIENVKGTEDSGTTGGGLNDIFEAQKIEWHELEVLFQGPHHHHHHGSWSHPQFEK
Summary of the method: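 Readout is the 665/615 nm TR-FRET ratio (Eu anti-His donor, streptavidin-Alexa647 acceptor), normalized to DMSO and saturating displacer, fit by Morrison-based five-parameter logistic for Kd^app. His-tagged sTNFR1 (1-211) prebound to 100 nM biotinylated peptide SEQ ID NO.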

## C[C@H]1C(=O)N[C@@H](CC(N)=O)C(=O)N[C@@H](Cc2ccncc2)C(=O)N[C@@H](Cc2c[nH]c3ccccc23)C(=O)N[C@@](C)(CO)C(=O)N[C@@H](Cc2ccc(C(=O)O)cc2)C(=O)N[C@@H](CCCNC(=N)N)C(=O)N(C)CC(=O)N[C@@H](Cc2c[nH]c3ccccc23)C(=O)N[C@H](C(N)=O)CSCC(=O)N[C@@H](CCc2ccccc2)C(=O)N[C@@H](Cc2ccc(O)cc2)C(=O)N[C@@H](CO)C(=O)N[C@@H](Cc2c[nH]c3ccccc23)C(=O)N1C [SEQ ID NO. 260] ({CH2CO}-[hPhe]YSW[NMeA]N[4Pal]W[αMeS][Phe(4-COOH)]R[Sar]WC-NH2; thioether N-14)
[1]
  Kd: 6 nM
[2]
  IC50: 10.2 nM

## CCCC[C@@H]1NC(=O)CSC[C@@H](C(N)=O)NC(=O)[C@H]([C@@H](C)c2c[nH]c3c(OC)cccc23)NC(=O)CN(C)C(=O)[C@H](Cc2ccc(O)cc2)NC(=O)[C@H](Cc2ccc(C(=O)O)cc2)NC(=O)[C@](C)(CO)NC(=O)[C@H](Cc2c[nH]c3c(Cl)cccc23)NC(=O)[C@H](Cc2ccncc2)NC(=O)[C@H](CC(N)=O)NC(=O)[C@H]2C[C@@H](O)CN2C(=O)[C@H](Cc2c[nH]c3ncccc23)NC(=O)[C@@H]2CNCCN2C(=O)[C@H](Cc2ccncc2)NC1=O [SEQ ID NO. 261] ({CH2CO}-[Nle][4Pal][Pip(4-aza)][Trp(7-aza)][d(cisHyp)]N[4Pal][Trp(7-Cl)][αMeS][Phe(4-COOH)]Y[Sar][Trp(βS-Me,7-OMe)]C-NH2; thioether N-14)
[1]
  Kd: 0.2 nM
[2]
  IC50: 0.4 nM
  Kd: 0.3 nM

## CCCC[C@@H]1NC(=O)[C@@H]2CC[C@@H](C2)NC(=O)[C@H]([C@@H](C)c2c[nH]c3c(OC)cccc23)NC(=O)CN(C)C(=O)[C@H](Cc2ccc(O)cc2)NC(=O)[C@H](Cc2ccc(C(=O)O)cc2)NC(=O)[C@](C)(CO)NC(=O)[C@H](Cc2c[nH]c3c(Cl)cccc23)NC(=O)[C@H](Cc2ccncc2)NC(=O)[C@H](CC(N)=O)NC(=O)[C@H](CCC(=O)O)N(C)C(=O)[C@H](Cc2c[nH]c3c(Cl)cccc23)NC(=O)[C@@H]2CNCCN2C(=O)[C@H](Cc2ccncc2)NC1=O [SEQ ID NO. 262] (cyclo([4Pal][Trp(7-Cl)][αMeS][Phe(4-COOH)]Y[Sar][Trp(βS-Me,7-OMe)][X1][Nle][4Pal][Pip(4-aza)][Trp(7-Cl)][NMeE]N))
[1]
  Kd: 0.24 nM
[2]
  Kd: 0.39 nM

## C[C@H]1C(=O)N[C@@H](CC(N)=O)C(=O)N[C@@H](Cc2ccncc2)C(=O)N[C@@H](Cc2c[nH]c3ccccc23)C(=O)N[C@@](C)(CO)C(=O)N[C@@H](Cc2ccc(C(=O)O)cc2)C(=O)N[C@@H](Cc2ccc(O)cc2)C(=O)N(C)CC(=O)N[C@@H](Cc2c[nH]c3ccccc23)C(=O)N[C@H](C(N)=O)CSCC(=O)N[C@@H](CCc2ccccc2)C(=O)N[C@@H](Cc2ccc(O)cc2)C(=O)N[C@@H](CO)C(=O)N[C@@H](Cc2c[nH]c3c(F)cccc23)C(=O)N1C [SEQ ID NO. 263] ({CH2CO}-[hPhe]YS[Trp(7-F)][NMeA]N[4Pal]W[αMeS][Phe(4-COOH)]Y[Sar]WC-NH2; thioether N-14)
[1]
  Kd: 1.6 nM
[2]
  IC50: 2.88 nM

## CCCC[C@@H]1NC(=O)[C@@H]2CC[C@@H](C2)NC(=O)[C@H]([C@@H](C)c2c[nH]c3c(OC)cccc23)NC(=O)CN(C)C(=O)[C@H](Cc2ccc(O)cc2)NC(=O)[C@H](Cc2ccc(C(=O)O)cc2)NC(=O)[C@](C)(CO)NC(=O)[C@H](Cc2c[nH]c3c(Cl)cccc23)NC(=O)[C@H](Cc2ccncc2)NC(=O)[C@H](CC(N)=O)NC(=O)[C@H]2CC(F)(F)CN2C(=O)[C@H](Cc2c[nH]c3ccccc23)NC(=O)[C@@H]2CNCCN2C(=O)[C@H](Cc2ccncc2)NC1=O [SEQ ID NO. 266] (cyclo([4Pal][Trp(7-Cl)][αMeS][Phe(4-COOH)]Y[Sar][Trp(βS-Me,7-OMe)][X1][Nle][4Pal][Pip(4-aza)]W[dPro(4,4-F2)]N))
[1]
  Kd: 0.06 nM
[2]
  Kd: 0.45 nM

## CCCC[C@@H]1NC(=O)[C@H]2CC[C@H](C2)NC(=O)[C@H]([C@@H](C)c2c[nH]c3c(OC)cccc23)NC(=O)CN(C)C(=O)[C@H](Cc2ccc(O)cc2)NC(=O)[C@H](Cc2ccc(C(N)=O)cc2)NC(=O)[C@](C)(CO)NC(=O)[C@H](Cc2c[nH]c3c(Cl)cccc23)NC(=O)[C@H](Cc2ccc(C(=O)O)cc2)NC(=O)[C@H](CC(N)=O)NC(=O)[C@H](CCC(=O)O)N(C)C(=O)[C@H](Cc2c[nH]c3ccccc23)NC(=O)[C@@H]2CC[C@@H](O)CN2C(=O)[C@H](Cc2ccncc2)NC1=O [SEQ ID NO. 267] (cyclo([4Pal][Pip(5R-OH)]W[NMeE]N[Phe(4-COOH)][Trp(7-Cl)][αMeS][Phe(4-CONH2)]Y[Sar][Trp(βS-Me,7-OMe)][X13][Nle]))
[1]
  Kd: 0.14 nM
[2]
  Kd: 0.29 nM
